Assay results taken from patent US11339171B2, “MDM2 inhibitors” (Gan & Lee Pharmaceuticals, priority 2017, dated 2022).
“And” between values parts separate entries of the source, which are not always exact repeats. Equal entries are not always repeated. Where two headings read alike, the source gives them in different places.

Experiments:
[1] = Pharmacokinetics in ICR mice after intravenous and intragastric administration; type: in vivo; settings: for MRT last: read-out: MRT(0-t); for MRT inf: read-out: MRT(0-∞); for Vd: read-out: Vz
In short: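 Plasma concentrations by LC-MS/MS (range 1 to 2000 ng/ml) following single intravenous (2 mg/kg) or oral gavage (5 mg/kg) dosing of fasted male ICR mice, three per group. Vehicle 5% DMSO + 40% PEG400 + 55% (10% HP-β-CD in saline); standard PK parameters including bioavailability calculated.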

MDM2 = biological target: T1, MDM2 (Homo sapiens, UniProt Q00987); experiment: Inhibition test of MDM2-P53 (GST-MDM2, Biotin-P53, Anti-GST-Tb, SA-XL665); type: binding
T1 construct: made in house
In short: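 Binding was measured by TR-FRET with GST-MDM2 at 4 nM final in PBS with 0.1% BSA, 5 mM DTT and 1 mM AEBSF. Compounds were tested as twelve-point 5-fold dilutions and incubated with the detection mix for 90 min at 25 °C with shaking before plate-reader reading and curve fitting.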

[2] = test system: human osteosarcoma cell line SJSA-1; experiment: Inhibition of proliferation of human osteosarcoma cell line SJSA-1 (DAPI staining, In Cell Analyzer); settings: Homo sapiens, SJSA-1, 72 h, read-out: IC50 (nM), inhibitory activity on proliferation of human osteosarcoma cell line SJSA-1, SJSA-1, incubated 72 h
[3] = ICR mice, IV 2 mg/kg, individual animal, 2 mg/kg
[4] = ICR mice, PO 5 mg/kg, individual animal, 5 mg/kg
[5] = male, ICR, mouse, plasma, iv, 2 mg/kg, ICR mice, IV 2 mg/kg, individual animal
[6] = male, ICR, mouse, plasma, iv, 2 mg/kg, ICR mice, IV 2 mg/kg, individual animal, read-out: AUC(0-t)
[7] = male, ICR, mouse, plasma, iv, 2 mg/kg, ICR mice, IV 2 mg/kg, individual animal, read-out: Cmax
[8] = male, ICR, mouse, plasma, iv, 2 mg/kg, ICR mice, IV 2 mg/kg, individual animal, read-out: t1/2 (converted)
[9] = male, ICR, mouse, plasma, iv, 2 mg/kg, ICR mice, IV 2 mg/kg, mean of 3 animals
[10] = male, ICR, mouse, plasma, iv, 2 mg/kg, ICR mice, IV 2 mg/kg, mean of 3 animals, read-out: AUC(0-t)
[11] = male, ICR, mouse, plasma, iv, 2 mg/kg, ICR mice, IV 2 mg/kg, mean of 3 animals, read-out: Cmax
[12] = male, ICR, mouse, plasma, iv, 2 mg/kg, ICR mice, IV 2 mg/kg, mean of 3 animals, read-out: Tmax
[13] = male, ICR, mouse, plasma, iv, 2 mg/kg, ICR mice, IV 2 mg/kg, mean of 3 animals, read-out: t1/2 (converted)
[14] = male, ICR, mouse, plasma, po, 5 mg/kg, ICR mice, PO 5 mg/kg, individual animal
[15] = male, ICR, mouse, plasma, po, 5 mg/kg, ICR mice, PO 5 mg/kg, individual animal, read-out: Cmax
[16] = male, ICR, mouse, plasma, po, 5 mg/kg, ICR mice, PO 5 mg/kg, individual animal, read-out: Tmax
[17] = male, ICR, mouse, plasma, po, 5 mg/kg, ICR mice, PO 5 mg/kg, individual animal, read-out: t1/2 (converted)
[18] = male, ICR, mouse, plasma, po, 5 mg/kg, ICR mice, PO 5 mg/kg, mean of 3 animals
[19] = male, ICR, mouse, plasma, po, 5 mg/kg, ICR mice, PO 5 mg/kg, mean of 3 animals, read-out: AUC(0-t)
[20] = male, ICR, mouse, plasma, po, 5 mg/kg, ICR mice, PO 5 mg/kg, mean of 3 animals, read-out: Cmax
[21] = male, ICR, mouse, plasma, po, 5 mg/kg, ICR mice, PO 5 mg/kg, mean of 3 animals, read-out: Tmax
[22] = male, ICR, mouse, plasma, po, 5 mg/kg, ICR mice, PO 5 mg/kg, mean of 3 animals, read-out: t1/2 (converted)
[23] = male, ICR, mouse, plasma, po, 5 mg/kg, oral intragastric administration 5 mg/kg, read-out: AUC0-t
[24] = male, ICR, mouse, plasma, po, 5 mg/kg, oral intragastric administration 5 mg/kg, read-out: half-life (converted)
[25] = male, mouse, plasma, ICR mice, PO 5 mg/kg vs IV 2 mg/kg, from mean values, read-out: F* (bioavailability)

T1 sequence (Q00987 whole entry): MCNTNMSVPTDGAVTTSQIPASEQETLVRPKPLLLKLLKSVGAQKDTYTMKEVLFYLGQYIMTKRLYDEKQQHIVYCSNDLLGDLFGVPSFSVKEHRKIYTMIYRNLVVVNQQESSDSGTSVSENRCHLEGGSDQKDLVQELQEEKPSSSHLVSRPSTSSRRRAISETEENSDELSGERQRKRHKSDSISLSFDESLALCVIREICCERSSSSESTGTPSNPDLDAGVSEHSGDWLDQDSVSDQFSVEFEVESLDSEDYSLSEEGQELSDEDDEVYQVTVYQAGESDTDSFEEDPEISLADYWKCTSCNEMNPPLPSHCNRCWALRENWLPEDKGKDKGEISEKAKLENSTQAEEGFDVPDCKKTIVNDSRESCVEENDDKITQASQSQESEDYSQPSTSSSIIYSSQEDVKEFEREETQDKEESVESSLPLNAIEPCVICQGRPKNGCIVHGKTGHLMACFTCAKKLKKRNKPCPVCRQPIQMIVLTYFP

COc1ccc(-c2nc3c(n2C(C)C)[C@@]2(C(=O)Nc4cc(Cl)ccc42)N(c2cc(Cl)cnc2C)C3=O)c(OC)c1 [Example S-61, (S)-6-chloro-5′-(5-chloro-2-methylpyridin-3-yl)-2′-(2,4-dimethoxyphenyl)-3′-isopropyl-3′H-spiro[dihydroindole-3,4′-pyrrolo[3,4-d]imidazole]-2,6′(5′H)-dione]
AUC(0-t) [1, 3]: 5346.76 ng·h/mL and 4640.74 ng·h/mL
AUC(0-∞) [1, 3]: 5483.62 ng·h/mL and 4724.28 ng·h/mL
CL [1, 3]: 6.08 mL/min/kg and 7.06 mL/min/kg
Cmax [1, 3]: 3244.96 ng/mL and 2994.43 ng/mL
MRT(0-t) [1, 3]: 1.26 h and 1.21 h
MRT(0-∞) [1, 3]: 1.42 h and 1.32 h
Vz [1, 3]: 0.60 L/kg and 0.67 L/kg
t1/2 [1, 3]: 1.15 h and 1.09 h
AUC(0-t) [1, 4]: 2462.65 ng·h/mL and 4960.30 ng·h/mL and 3162.34 ng·h/mL
AUC(0-∞) [1, 4]: 5500.70 ng·h/mL and 3530.81 ng·h/mL
Cmax [1, 4]: 2489.40 ng/mL and 1772.67 ng/mL
MRT(0-t) [1, 4]: 2.03 h and 1.91 h
MRT(0-∞) [1, 4]: 3.00 h
Tmax [1, 4]: 30 min
t1/2 [1, 4]: 2.71 h and 2.98 h
AUC(0-inf) [1, 5]: 3630 ng·h/mL
clearance [1, 5]: 9.19 mL/min/kg
AUC(0-t) [1, 6]: 3580 ng·h/mL
Cmax [1, 7]: 3250 ng/mL
MRT last [1, 5]: 0.99 h
MRT inf [1, 5]: 1.07 h
Tmax ([1]; male, ICR, mouse, plasma, iv, 2 mg/kg, ICR mice, IV 2 mg/kg, individual animal, read-out: Tmax): 4.8 min
Vd [1, 5]: 0.8 L/kg
half-life [1, 8]: 60 min
AUC(0-inf) [1, 9]: 4610 ng·h/mL
clearance [1, 9]: 7.44 mL/min/kg
AUC(0-t) [1, 10]: 4520 ng·h/mL
Cmax [1, 11]: 3160 ng/mL
MRT last [1, 9]: 1.15 h
MRT inf [1, 9]: 1.27 h
Tmax [1, 12]: 4.98 min
Vd [1, 9]: 0.69 L/kg
half-life [1, 13]: 64.8 min
AUC(0-inf) [1, 14]: 2770 ng·h/mL
Cmax [1, 15]: 2430 ng/mL
MRT last [1, 14]: 1.57 h
MRT inf [1, 14]: 2.85 h
Tmax [1, 16]: 15 min
half-life [1, 17]: 215 min
AUC(0-inf) [1, 18]: 3930 ng·h/mL
AUC(0-t) [1, 19]: 3530 ng·h/mL
Cmax [1, 20]: 2230 ng/mL
MRT last [1, 18]: 1.84 h
MRT inf [1, 18]: 2.95 h
Tmax [1, 21]: 19.8 min
half-life [1, 22]: 185 min
AUC(0-t) [1, 23]: 3530 ng·h/mL
half-life [1, 24]: 185 min
bioavailability [1, 25]: 31.2%
IC50 (MDM2): 1.31 nM
IC50 [2]: 5.5 nM

COc1cc(OC(C)C)ncc1-c1nc2c(n1C(C)C)[C@@]1(C(=O)Nc3cc(Cl)ccc31)N(c1cc(Cl)ccc1C)C2=O [Example S-69, (S)-6-chloro-5′-(5-chloro-2-methylphenyl)-2′-(6-isopropoxy-4-methoxypyridin-3-yl)-3′-isopropyl-3′H-spiro[dihydroindole-3,4′-pyrrolo[3,4-d]imidazole]-2,6′(5′H)-dione]
AUC(0-t) [1, 3]: 50006.21 ng·h/mL and 52203.96 ng·h/mL
AUC(0-∞) [1, 3]: 50659.35 ng·h/mL and 52314.11 ng·h/mL
CL [1, 3]: 0.66 mL/min/kg
Cmax [1, 3]: 5141.60 ng/mL and 6038.43 ng/mL
MRT(0-t) [1, 3]: 4.62 h and 4.30 h
MRT(0-∞) [1, 3]: 4.95 h and 4.35 h
Tmax [1, 3]: 30 min and 4.8 min
Vz [1, 3]: 0.23 L/kg
t1/2 [1, 3]: 4.02 h and 2.83 h
AUC(0-t) [1, 4]: 106563.84 ng·h/mL and 85266.27 ng·h/mL
AUC(0-∞) [1, 4]: 106654.00 ng·h/mL and 85298.58 ng·h/mL
Cmax [1, 4]: 10867.97 ng/mL and 11828.43 ng/mL
MRT(0-t) [1, 4]: 5.03 h and 4.46 h
MRT(0-∞) [1, 4]: 5.04 h and 4.47 h
t1/2 [1, 4]: 2.28 h and 2.03 h
AUC(0-inf) [1, 5]: 53200 ng·h/mL
clearance [1, 5]: 0.63 mL/min/kg
AUC(0-t) [1, 6]: 53100 ng·h/mL
Cmax [1, 7]: 5980 ng/mL
MRT last [1, 5]: 4.38 h
MRT inf [1, 5]: 4.44 h
Vd [1, 5]: 0.16 L/kg
half-life [1, 8]: 173 min
AUC(0-inf) [1, 9]: 52100 ng·h/mL
clearance [1, 9]: 0.64 mL/min/kg
AUC(0-t) [1, 10]: 51800 ng·h/mL
Cmax [1, 11]: 5720 ng/mL
MRT last [1, 9]: 4.43 h
MRT inf [1, 9]: 4.58 h
Tmax [1, 12]: 13.3 min
Vd [1, 9]: 0.18 L/kg
half-life [1, 13]: 194 min
AUC(0-inf) [1, 14]: 69300 ng·h/mL
AUC(0-t) ([1]; male, ICR, mouse, plasma, po, 5 mg/kg, ICR mice, PO 5 mg/kg, individual animal, read-out: AUC(0-t)): 69200 ng·h/mL
Cmax [1, 15]: 7630 ng/mL
MRT last [1, 14]: 4.92 h
MRT inf [1, 14]: 4.94 h
Tmax [1, 16]: 120 min
half-life [1, 17]: 134 min
AUC(0-inf) [1, 18]: 87100 ng·h/mL
AUC(0-t) [1, 19]: 87000 ng·h/mL
Cmax [1, 20]: 10100 ng/mL
MRT last [1, 18]: 4.8 h
MRT inf [1, 18]: 4.82 h
Tmax [1, 21]: 120 min
half-life [1, 22]: 131 min
AUC(0-t) [1, 23]: 87000 ng·h/mL
half-life [1, 24]: 131 min
bioavailability [1, 25]: 67.2%
IC50 (MDM2): 1.78 nM
IC50 [2]: 2.29 nM

CCOc1cc(OC)c(-c2nc3c(n2C(C)C)[C@@]2(C(=O)Nc4cc(Cl)ccc42)N(c2cc(Cl)ccc2C)C3=O)cn1 [Example S-72, (S)-6-chloro-5′-(5-chloro-2-methylphenyl)-2′-(6-ethoxy-4-methoxypyridin-3-yl)-3′-isopropyl-3′H-spiro[dihydroindole-3,4′-pyrrolo[3,4-d]imidazole]-2,6′(5′H)-dione]
AUC(0-t) [1, 3]: 11802.83 ng·h/mL and 14847.37 ng·h/mL
AUC(0-∞) [1, 3]: 12174.58 ng·h/mL and 17305.95 ng·h/mL
CL [1, 3]: 2.74 mL/min/kg and 1.93 mL/min/kg
Cmax [1, 3]: 4839.23 ng/mL and 3686.88 ng/mL
MRT(0-t) [1, 3]: 1.52 h and 1.96 h
MRT(0-∞) [1, 3]: 1.71 h and 2.98 h
Tmax [1, 3]: 4.8 min and 60 min
Vz [1, 3]: 0.29 L/kg and 0.36 L/kg
t1/2 [1, 3]: 1.23 h and 2.16 h
AUC(0-t) [1, 4]: 51286.19 ng·h/mL and 23996.12 ng·h/mL and 26941.23 ng·h/mL
AUC(0-∞) [1, 4]: 51351.03 ng·h/mL and 24161.28 ng·h/mL and 27586.31 ng·h/mL
Cmax [1, 4]: 7160.86 ng/mL and 6289.71 ng/mL
MRT(0-t) [1, 4]: 2.18 h and 2.66 h
MRT(0-∞) [1, 4]: 2.23 h and 2.84 h
Tmax [1, 4]: 60 min
t1/2 [1, 4]: 2.54 h and 1.13 h and 1.47 h
AUC(0-inf) [1, 5]: 11900 ng·h/mL
clearance [1, 5]: 2.8 mL/min/kg
AUC(0-t) [1, 6]: 11500 ng·h/mL
Cmax [1, 7]: 4630 ng/mL
MRT last [1, 5]: 1.53 h
MRT inf [1, 5]: 1.78 h
Vd [1, 5]: 0.34 L/kg
half-life [1, 8]: 83.4 min
AUC(0-inf) [1, 9]: 13800 ng·h/mL
clearance [1, 9]: 2.49 mL/min/kg
AUC(0-t) [1, 10]: 12700 ng·h/mL
Cmax [1, 11]: 4390 ng/mL
MRT last [1, 9]: 1.67 h
MRT inf [1, 9]: 2.16 h
Tmax [1, 12]: 23.3 min
Vd [1, 9]: 0.33 L/kg
half-life [1, 13]: 95.4 min
Cmax [1, 15]: 7870 ng/mL
MRT last [1, 14]: 3.95 h
MRT inf [1, 14]: 3.98 h
Tmax [1, 16]: 30 min
AUC(0-inf) [1, 18]: 34400 ng·h/mL
AUC(0-t) [1, 19]: 34100 ng·h/mL
Cmax [1, 20]: 7110 ng/mL
MRT last [1, 18]: 2.93 h
MRT inf [1, 18]: 3.01 h
Tmax [1, 21]: 40.2 min
half-life [1, 22]: 103 min
AUC(0-t) [1, 23]: 34100 ng·h/mL
half-life [1, 24]: 103 min
bioavailability ([1]; male, ICR, mouse, plasma, oral intragastric administration 5 mg/kg, read-out: bioavailability): 107%
bioavailability [1, 25]: 107%
IC50 (MDM2): 0.9 nM
IC50 [2]: 5.9 nM
